Test [1] deals with PDE4. In words: Assay I: inhibition of cyclic nucleotide PDE activity (cAMP hydrolysis by PDE4). Type of test: biochemical. The conditions noted are these: guinea pig PDE4; 1 μM cAMP substrate; mean±S.E.M.; read-out: PDE4L (IC50) on PDE4 activity. As to the method:
Under a protocol approved by the Animal Care and Use Committee of Taipei Medical University, five male guinea pigs (Hartley), weighing 500-600 g, are sacrificed. The lungs (15 g) or hearts (4 g) taken therefrom are chopped into small pieces and homogenized with a glass/teflon homogenizer (Glas-Col, Terre Haute, Ind., USA) in 10 volumes of cold medium (pH 6.5) containing 20 mM Bis-tris, 2 mM benzamidine, 2 mM EDTA, 50 mM sodium chloride, 0.1 mM phenylmethanesulfonyl fluoride (PMSF), and 1 mM dithiothreitol. At 4 , the homogenate is centrifuged at 170 g for 15 min, and the supernatant thereof is then re-centrifuged at 40,000 g for 30 min. […] The column is washed with two bed volumes of homogenate buffer to remove unbound material, where the resin beads therein will bind with proteins, such as PDE proteins. Proteins bound to the Q-Sepharose beads are eluted with various concentrations (0.23, 0.34, 0.44, 0.69, and 1.00 M) of NaCl dissolved in homogenate buffer (for each concentration, 40-50 mL elution buffer are applied) at a flow rate of 30 ml/h. Fractions (3 ml each) are collected, and ethylene glycol (EG) is added thereto until a final concentration of 30% (v/v). And then the samples are frozen at […].
The activities of PDE4 in the homogenate are measured with a two-step procedure according to the method of Thompson and Appleman, using cAMP with [^3H]-cAMP or cGMP with [^3H]-cGMP as substrates. The PDE enzyme prepared (25 μl) with 10 μl inhibitor or the solvents therefor is incubated for 30 min at 37 °C in a total assay buffer, where the final volume of the assay is amounted to 100 μl. In accordance with the features of the PDE isozymes, the assay buffer contains 50 mM Tris/HCl (pH 7.4), 3 mM MgCl2, 1 mM dithiothreitol, and 0.05% BSA, and optionally contains 1 μM cAMP with 0.2 μCi [^3H]-cAMP as a substrate alone or in the presence of 0.1 unit calmodulin with 10 μM CaCl2, or 5 μM cGMP, and 1 μM cGMP with 0.2 μCi [^3,H]-cGMP as another substrate alone or in the presence of 0.1 unit calmodulin with 10 μM CaCl2.
The PDE enzyme and the inhibitors (or their solvent) therefor are mixed and incubated on ice for 30 min previously, and then mixed with the assay buffer. The assay is initiated by transferring the mixture to a water bath at 37 °C. Following the other 30 min incubation, the reaction is stopped by transferring the reaction vessel to a bath of boiling water for 3 min. After cooling on ice, 20 μl of the 1 mg/ml of Crotalus atrox venom is added to the reaction mixture, and the mixture is incubated at 37 °C for 10 min. The uncatalyzed substrates, such as cAMP, [^3H]-cAMP, cGMP, or [^3H]-cGMP are removed by the addition of 500 μl of a 1-in-1 Tris-HCl (40 mM) buffer suspension of Dowex resin (1×8-200) with incubation on ice for 30 min, since the bindings of the cyclic nucleotides and the resin. Each tube is then centrifuged for 2 min at 6000 rpm (3700 g), and 100 μl of the supernatant is removed and counted by a β-counter for calculating the enzyme (PDEs) activity.
The dissociation constant of inhibitor binding (Ki) value is determined from the equation of apparent Km as a function of the inhibitor concentration (insert in A and B, respectively). The slope of the equation is equal to the value of […] (where KM is Michaelis constant). The amounts of the total proteins are calculated based on the analytical method reported by Bradford. In FIGS. 1A to 1D, all enzyme activities are shown as nmole of substrate per mg of proteins per minute (nmole/mg/min) hydrolyzed.

Test [2] has as its target T1, high affinity rolipram binding sites (HARBS) of the PDE4 (PDE4H).
T1 construct: other: guinea pig whole brain particulates; 2 nM [3H]-r; guinea pig whole brain particul
In words: Assay II: replacement of [3H]-rolipram bound on particulate HARBS of whole brain. Further details: species or system guinea pig. The conditions noted are these: guinea pig whole brain particulates, 2 nM [3H]-rolipram, mean±S.E.M., read-out: PDE4H (EC50) for replacing high-affinity [3H]-rolipram binding. As to the method:
(§1) The binding experiments are carried on basis of the methods of Schneider et al and Zhao et al with a small modification. Under a protocol approved by the Animal Care and Use Committee of Taipei Medical University, five male guinea pigs (Hartley), weighing 500-600 g, are anesthetized. The whole brains taken therefrom are homogenized with in 10 volumes of cold medium (pH 6.5) containing 20 mM Bis-tris, 2 mM benzamidine, 2 mM EDTA, 50 mM sodium chloride, 0.1 mM phenylmethanesulfonyl fluoride (PMSF), and 1 mM dithiothreitol. At 4[…], the homogenate is centrifuged at 170 g for 15 min for removing blood vessels and connective tissues, and the supernatant thereof is then re-centrifuged at 40,000 g for 30 min for separating the particulates from the cytosol of cells.
(§2) The final concentration of [^3H]-rolipram is 2 nM. […] After incubation, the reaction is stopped by transferring the reaction vessel to a bath of crashed ice. Then the reaction mixture is filtered through a punched glass fiber filter (Whatman GF/B) placed in a mini funnel, which is adopted to a 1.5 ml of Eppendorff's tube for collecting the filtrate in the mini centrifuge at 1000 rpm (100 g) for 10 seconds. By the same way (centrifugation), it is further washed with 0.3 ml reaction buffer each for three times. The Whatman GF/B filter is mixed with 2 ml of cocktail and counted by the β-scintillation counter (Backman, Fullerton, Calif., USA) for counting the radioactivity thereof.

The test system of a further test is PDE4H. The conditions noted are these: cited from earlier work; for PDE4H/PDE4L ratio: literature values [23-26].
The test system of test [3] is high affinity rolipram binding sites (HARBS) of the PDE4 (PDE4H). In words: Assay II: replacement of [3H]-rolipram bound on particulate HARBS of whole brain. Further details: species or system guinea pig. Conditions: ratio of HARBS EC50 to PDE4 IC50. On the procedure:
as §1, §2

Test [4] has as its system PDE4. Conditions: cited from earlier work.

Read-outs that look alike come from different tables or passages of the source.

Turning to `COc1ccc(C2CC(=O)c3c(O)cc(O)cc3O2)cc1O` (stereo not drawn) [Hesperetin], in the test with PDE4 [1], the concentration for half-maximal inhibition (IC50) (as a rule, the concentration needed to halve the response being measured) is 28.2 ± 1.1 µM. The EC50 (commonly the midpoint of the concentration-response curve) in test [2] is more than 300 µM.
Consider `CCCCOc1cc(CC2CNC(=O)N2)ccc1OC` (stereo not drawn) [Ro 20-1724, reference compound], for which, in the test on PDE4 [1], the half-inhibitory concentration (IC50) was 8.7 ± 1.9 µM. For the same compound, the concentration giving a half-maximal response (EC50) in test [2] (reference drugs) is 0.087 ± 0.029 µM.
Consider `COc1cc(O)c2c(=O)c(OC)c(-c3ccc(OC)c(OC)c3)oc2c1` [Quercetin-3,7,3′,4′-O-tetramethylether], for which the IC50 in the test on PDE4 [1] was more than 100 µM. For the same compound, the half-maximal effective concentration (EC50) in test [2] is more than 300 µM.
Turning to `O=C(Nc1c(Cl)cncc1Cl)C(=O)c1cn(Cc2ccc(F)cc2)c2ccc(O)cc12` [AWD-12-281, N-(3,5-dichloro-pyrid-4-yl)-[1-(4-fluorobenzyl)-5-hydroxy-indole-3-yl]-glyo xylic acid amide], in the test on PDE4H, the PDE4H/PDE4L ratio result is “about 11”.
With `O=C(Nc1c(Cl)cncc1Cl)c1ccc(OC(F)F)c(OCC2CC2)c1` [roflumilast], the PDE4H/PDE4L ratio in the test with PDE4H was 3.
For the compound `COc1ccc([C@]2(C#N)CC[C@@H](C(=O)O)CC2)cc1OC1CCCC1` [cilomilast], in the test on PDE4H, the PDE4H/PDE4L ratio result is “about 1”.
Turning to `COc1ccc(-c2cc(=O)c3c(O)cc(O)cc3o2)cc1O` [Diosmetin], the IC50 in the test on PDE4 [1] stood at 20.2 ± 2.4 µM.
For `O=c1c(O)c(-c2ccc(O)c(O)c2)oc2cc(O)cc(O)c12` [Quercetin], in the test with PDE4 [1], the IC50 was found to be 9.9 ± 2.5 µM. For the same compound, the “PDE4H/PDE4L ratio (EC50/IC50)” value in test [3] is given as more than 30. Besides, in test [2], the EC50 was more than 300 µM.
The matching figures for `COc1c(-c2ccc(OC(C)=O)c(OC(C)=O)c2)oc2cc(OC(C)=O)cc(OC(C)=O)c2c1=O` [Quercetin-3-O-methyl-5,7,3′,4′-O-tetraacetate]: 3.9 ± 0.6 µM, 1 and 3.9 ± 1.4 µM.
The matching figures for `O=c1c(O)c(-c2cc(O)c(O)c(O)c2)oc2cc(O)cc(O)c12` [Myricetin]: 39.8 ± 2.1 µM, more than 7.5 and more than 300 µM.
Take `COc1c(-c2ccc(O)c(O)c2)oc2cc(O)cc(O)c2c1=O` [Qercetin-3-O-methylether (3-MQ), Qercetin-3-O-methylether]: the IC50 with PDE4 [1] was 28.5 ± 5.8 µM. Moreover, in test [3], the “PDE4H/PDE4L ratio (EC50/IC50)” value came out at 0.61. Also, the half-maximal effective concentration (EC50) in test [2] is 17.4 ± 4 µM.
For `COc1cc(OC)c2c(c1)OC(c1ccc(OC)c(OC)c1)CC2=O` (stereo not drawn) [Hesperetin-5,7,3′-O-trimethylether], the IC50 with PDE4 [1] was found to be 9.4 ± 2.9 µM. Moreover, the “PDE4H/PDE4L ratio (EC50/IC50)” value in test [3] is recorded as 18. Also, the 50% effective concentration (EC50) in test [2] amounted to 171 ± 32.9 µM.
Turning to `O=c1cc(-c2ccc(O)c(O)c2)oc2cc(O[C@@H]3O[C@H](CO)[C@@H](O)[C@H](O)[C@H]3O)cc(O)c12` [Luteolin-7-glucoside], in test [3], the “PDE4H/PDE4L ratio (EC50/IC50)” value is given as more than 7. Further, in test [2], the EC50 is more than 300 µM.
In the case of `COc1ccc(-c2coc3cc(O)cc(O)c3c2=O)cc1` [Biochanin A], the concentration for half-maximal inhibition (IC50) with PDE4 [1] was 8.5 ± 0.1 µM. Moreover, the “PDE4H/PDE4L ratio (EC50/IC50)” value in test [3] is reported as more than 35. For the same compound, the half-maximal effective concentration (EC50) in test [2] is more than 300 µM.
As to `O=c1c(-c2ccc(O)cc2)coc2cc(O)cc(O)c12` [Genistein], the 50% inhibitory concentration (IC50) is 9.5 ± 1.9 µM in the test with PDE4 [1]; 5 µM with PDE4 [4] (reported by Nichols and Morimoto [18], read-out: IC50 for PDE4 inhibition). For the same compound, in test [2], the EC50 came out at 47.8 ± 15.9 µM.
For the compound `COc1cc(OC)c2c(=O)c(OC)c(-c3ccc(OC)c(OC)c3)oc2c1` [Quercetin-3,5,7,3′,4′-O-petamethylether], the half-maximal inhibitory concentration (IC50) in the test on PDE4 [1] was determined as 5.1 ± 1.4 µM. The “PDE4H/PDE4L ratio (EC50/IC50)” value in test [3] was 11. Also, the EC50 in test [2] amounted to 56 ± 22.7 µM.
As for `COc1cc(O)c2c(=O)c(-c3ccc(O)cc3)coc2c1` [Prunetin], the half-inhibitory concentration (IC50) with PDE4 [1] is 61.9 ± 17.3 µM. Moreover, the “PDE4H/PDE4L ratio (EC50/IC50)” value in test [3] is listed as more than 4.8. For the same compound, the concentration for a half-maximal effect (EC50) in test [2] is more than 300 µM.
In the case of `COc1ccc(C2CNC(=O)C2)cc1OC1CCCC1` (stereo not drawn) [Rolipram, reference compound], the IC50 in the test on PDE4 [1] was […]; with PDE4 [4] (literature [23], read-out: IC50 for binding PDE4L), […]. Further, the “PDE4H/PDE4L ratio (EC50/IC50)” value in test [3] stood at […]. Also, the half-maximal effective concentration (EC50) is 0.0052 ± 0.0019 µM in test [2] (reference drugs) and […] with PDE4H (literature [23], read-out: EC50 for binding PDE4H). The PDE4H/PDE4L ratio in the test on PDE4H is given as […].
As to `COc1cc(O)c2c(c1)OC(c1ccc(OC)c(OC)c1)CC2=O` (stereo not drawn) [Hesperetin-7,3′-O-dimethylether (HDME), Hesperetin-7,3′-O-dimethylether], the IC50 in the test on PDE4 [1] was found to be 3 ± 0.9 µM. Also, the “PDE4H/PDE4L ratio (EC50/IC50)” value in test [3] is on record as 35.5. Besides, the EC50 in test [2] stood at 107 ± 39.5 µM.
As for `COc1ccc(C2CC(=O)c3c(OC(C)=O)cc(OC(C)=O)cc3O2)cc1OC(C)=O` (stereo not drawn) [Hesperetin-5,7,3′-O-triacetate (HTA), Hesperetin-5,7,3′-O-triacetate], in the test on PDE4 [1], the IC50 came to 14.4 ± 1.8 µM. For the same compound, in test [3], the “PDE4H/PDE4L ratio (EC50/IC50)” value is given as more than 21. For the same compound, the concentration for a half-maximal effect (EC50) in test [2] is more than 300 µM.
As for `CC(=O)Oc1cc(OC(C)=O)c2c(=O)c(OC(C)=O)c(-c3ccc(OC(C)=O)c(OC(C)=O)c3)oc2c1` [Quercetin-3,5,7,3′,4′-O-pentaacetate], in the test with PDE4 [1], the 50% inhibitory concentration (IC50) was 18.5 ± 4.6 µM. Besides, the “PDE4H/PDE4L ratio (EC50/IC50)” value in test [3] stood at 4.48. For the same compound, the EC50 in test [2] was 82.8 ± 22.3 µM.
`COc1cc(O)c2c(=O)c(OC)c(-c3ccc(OC)c(O)c3)oc2c1` [Quercetin-3,7,4′-O-trimethylether]: the half-inhibitory concentration (IC50) with PDE4 [1] was 15.8 ± 4.4 µM. Further, in test [3], the “PDE4H/PDE4L ratio (EC50/IC50)” value is listed as more than 19. Besides, the EC50 in test [2] was more than 300 µM.
